Tests used:
Conditions in all cases: treatment: drug alone; 5 days
[1] = test system: SN12C; assay: minimum viability across doses, drug alone, relative to DMSO (fraction); higher = less growth inhibition
Description: (§1)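 Primary HTS: 8 RCC cell lines treated with 8 doses (up to 10 uM) of each library drug alone for 5 days; viability read by CellTiter-Glo and normalised to DMSO. GI50 was fitted with XLfit (4-parameter), AUC is the area under the dose-response curve, and minimum viability is the lowest fraction of DMSO viability across doses.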

[2] = test system: 769-P; assay: as above
Description: as §1

[3] = test system: 786-O; assay: as above
Description: as §1

[4] = test system: CAKI-1; assay: as above
Description: as §1

[5] = test system: TK-10; assay: as above
Description: as §1

[6] = test system: UO-31; assay: as above
Description: as §1

[7] = test system: ACHN; assay: as above
Description: as §1

[8] = test system: A498; assay: as above
Description: as §1

[9] = test system: SN12C; assay: AUC of dose-response viability curve, drug alone (arbitrary (AUC of normalised viability)); higher = less growth inhibition
Description: as §1

[10] = test system: 769-P; assay: as above
Description: as §1

[11] = test system: 786-O; assay: as above
Description: as §1

[12] = test system: CAKI-1; assay: as above
Description: as §1

[13] = test system: TK-10; assay: as above
Description: as §1

[14] = test system: UO-31; assay: as above
Description: as §1

[15] = test system: ACHN; assay: as above
Description: as §1

[16] = test system: A498; assay: as above
Description: as §1

[17] = test system: SN12C; assay: GI50, drug alone; higher = less potent
Description: as §1

[18] = test system: 769-P; assay: GI50, drug alone; higher = less potent
Description: as §1

[19] = test system: 786-O; assay: GI50, drug alone; higher = less potent
Description: as §1

[20] = test system: CAKI-1; assay: GI50, drug alone; higher = less potent
Description: as §1

[21] = test system: TK-10; assay: GI50, drug alone; higher = less potent
Description: as §1

[22] = test system: UO-31; assay: GI50, drug alone; higher = less potent
Description: as §1

[23] = test system: ACHN; assay: GI50, drug alone; higher = less potent
Description: as §1

[24] = test system: A498; assay: GI50, drug alone; higher = less potent
Description: as §1

Compound | GI50, drug alone [19] [µM] | GI50, drug alone [23] [µM] | minimum viability across doses [1] | minimum viability across doses [2] | minimum viability across doses [3] | minimum viability across doses [4] | minimum viability across doses [5] | minimum viability across doses [6] | minimum viability across doses [7] | minimum viability across doses [8] | AUC of dose-response viability curve [9] | AUC of dose-response viability curve [10] | AUC of dose-response viability curve [11] | AUC of dose-response viability curve [12] | AUC of dose-response viability curve [13] | AUC of dose-response viability curve [14] | AUC of dose-response viability curve [15] | AUC of dose-response viability curve [16] | GI50, drug alone [17] [µM] | GI50, drug alone [18] [µM] | GI50, drug alone [20] [µM] | GI50, drug alone [21] [µM] | GI50, drug alone [22] [µM] | GI50, drug alone [24] [µM]
COc1cc(Nc2ncc(F)c(Nc3ccc4c(n3)N(COP(=O)(O)O)C(=O)C(C)(C)O4)n2)cc(OC)c1OC [R788 (Fostamatinib)] | 1.16 | 1.22 | 0.287 | 0.145 | 0.158 | 0.0246 | 0.308 | 0.00902 | 0.0584 | 1.06 | 2.79 | 2.94 | 2.54 | 2.49 | 2.64 | 4.78 | 2.73 | 4.24 | 2.98 | 3.5 | 0.913 | 3.3 | 6.02 | > 10
CO[C@H]1C[C@@H]2CC[C@@H](C)[C@@](O)(O2)C(=O)C(=O)N2CCCC[C@H]2C(=O)O[C@H]([C@H](C)C[C@@H]2CC[C@@H](O)[C@H](OC)C2)CC(=O)[C@H](C)/C=C(\C)[C@@H](O)[C@@H](OC)C(=O)[C@H](C)C[C@H](C)/C=C/C=C/C=C/1C [Rapamycin (Sirolimus)] | < 0.003 | 0.171 | 0.557 | 0.504 | 0.211 | 0.377 | 0.491 | 0.0503 | 0.38 | 0.547 | 2.11 | 2.08 | 0.986 | 1.91 | 2.04 | 0.524 | 1.77 | 2.44 | 1.76 | > 10 | 0.358 | > 10 | < 0.003 | > 10
CN1CCN(CCOc2cc(OC3CCOCC3)c3c(Nc4c(Cl)ccc5c4OCO5)ncnc3c2)CC1 [Saracatinib (AZD0530)] | 2.81 | 1.03 | 0.504 | 0.0835 | 0.302 | 0.213 | 0.109 | 0.447 | 0.22 | 0.958 | 2.84 | 2.47 | 2.35 | 3.08 | 2.45 | 4.46 | 2.46 | 3.69 | > 10 | 1.26 | 2.34 | 1.22 | 8.99 | > 10
Cc1cc(C)c(/C=C2\C(=O)Nc3ccccc32)[nH]1 [Semaxanib (SU5416)] | > 10 | > 10 | 0.911 | 0.892 | 0.778 | 0.902 | 0.778 | 0.928 | 0.76 | 0.97 | 3.42 | 3.45 | 3.12 | 3.45 | 3.2 | 4.68 | 2.92 | 3.76 | > 10 | > 10 | > 10 | > 10 | > 10 | > 10

Further lines, with some results ahead:

GI50, drug alone [19] [µM] | GI50, drug alone [23] [µM] | Compound | minimum viability across doses [1] | minimum viability across doses [2] | minimum viability across doses [3] | minimum viability across doses [4] | minimum viability across doses [5] | minimum viability across doses [6] | minimum viability across doses [7] | minimum viability across doses [8] | AUC of dose-response viability curve [9] | AUC of dose-response viability curve [10] | AUC of dose-response viability curve [11] | AUC of dose-response viability curve [12] | AUC of dose-response viability curve [13] | AUC of dose-response viability curve [14] | AUC of dose-response viability curve [15] | AUC of dose-response viability curve [16] | GI50, drug alone [17] [µM] | GI50, drug alone [18] [µM] | GI50, drug alone [20] [µM] | GI50, drug alone [21] [µM] | GI50, drug alone [22] [µM] | GI50, drug alone [24] [µM]
5.37 | 8.48 | FC(F)(F)c1ccc(Nc2nc3cc(Oc4ccnc(-c5ncc(C(F)(F)F)[nH]5)c4)ccc3[nH]2)cc1 [Raf265 derivative] | 0.651 | 0.473 | 0.141 | 0.298 | 0.534 | 0.0014 | 0.142 | 1.04 | 3.32 | 3.24 | 2.69 | 3.62 | 3.18 | 3.5 | 3.47 | 4.16 | > 10 | 9.97 | 9.39 | > 10 | 1.05 | > 10
> 10 | 7.85 | CNC(=O)c1cc(Oc2ccc(NC(=O)Nc3ccc(Cl)c(C(F)(F)F)c3)c(F)c2)ccn1 [Regorafenib (BAY 73-4506)] | 0.387 | 0.894 | 0.598 | 0.363 | 0.536 | 0.186 | 0.39 | 0.883 | 3.16 | 3.39 | 2.63 | 3.16 | 3.02 | 3.11 | 3.38 | 3.76 | 8.24 | > 10 | 7.35 | > 10 | 2.55 | > 10
4.97 | 7.52 | CC[C@H](CO)Nc1nc(NCc2ccccc2)c2ncn(C(C)C)c2n1 [Roscovitine (Seliciclib, CYC202)] | 0.769 | 0.848 | 0.208 | 0.763 | 0.655 | 0.544 | 0.36 | 1.03 | 3.57 | 3.28 | 2.76 | 3.27 | 3.17 | 3.47 | 3.25 | 3.91 | > 10 | > 10 | > 10 | > 10 | > 10 | > 10
> 10 | > 10 | Cn1cc(-c2ccc3nnc(Sc4ccc5ncccc5c4)n3n2)cn1 [SGX-523] | 0.746 | 0.776 | 0.56 | 0.806 | 0.775 | 1.01 | 0.725 | 0.855 | 3.21 | 3.22 | 2.77 | 3.18 | 3.06 | 3.83 | 3.23 | 3.75 | > 10 | > 10 | > 10 | > 10 | > 10 | > 10
0.0504 | 0.168 | CS(=O)(=O)O.O=C(Nc1cccc(Cl)c1)Nc1ncc(CCNc2ncnc3ccsc23)s1 [SNS-314] | 0.245 | 0.343 | 0.159 | 0.172 | 0.536 | 0.891 | 0.17 | 0.637 | 2.54 | 2.2 | 1.76 | 1.36 | 2.73 | 4.36 | 1.77 | 4.02 | 1.75 | 0.506 | 0.0361 | > 10 | > 10 | > 10

Source: the supplement of paper PMC8149375
